Experimental data from publication PMC11571215, “Optimization of Antiproliferative Properties of Triimine Copper(II) Complexes” (Journal of Medicinal Chemistry, 2024).

Experiments:
HCT116-DoxR cells [1] = experiment: Cell cycle progression analysis (PI, flow cytometry); format: cell-based, human; conditions: complexes at IC50, Dox 6 μM, Cis 5 μM; 9, 12, 18, 24 h after double thymidine block
Source text: It is important to note that exposure to increased levels of ROS can trigger genotoxic stress, an effect often associated with chemotherapy and that may promote cell cycle arrest.[84] The cell cycle comprises a sequential set of cellular events such as checkpoints that regulate transitions between different phases when cells are under stress conditions. Indeed, if DNA damage occurs, interphase checkpoints can trigger cell cycle arrest, repair, and induction of apoptosis or senescence.[85] Indeed, data in Table 7 show some degree of accumulation of both complexes in the nucleus, which may expose the genomic DNA to their action. […] This DNA intercalating fluorophore allows the analysis of DNA content in various phases of the cell cycle (G0/G1, S, and G2/M) (the fluorescence intensity emitted by PI doubles with the duplication of DNA quantity in the G1 and G2 phases),[86] and its detection can be performed by flow cytometry. […] To ensure that all cells were in the same phase of the cell cycle (S phase) when exposed to the Cu(II) complexes and controls, a double thymidine block was applied.[83]
HCT116-DoxR cells were cultured in six-well plates at a density of 1 × 10^5 cells/mL and incubated at 37 °C, 5% (v/v) CO2, and 99% (v/v) relative humidity for 8 h. To ensure that cells were in the same phase of the cell cycle, they were subjected to a double thymidine block for synchronization. At the end of the incubation, the culture medium was replaced with 2 mM thymidine in complete medium, and cells were incubated for 16 h. After incubation, the thymidine-containing medium was replaced with a thymidine-free complete medium, and cells were incubated for an additional 8 h. After this time, a second thymidine block was applied, as described earlier. At the end of the incubation, the thymidine-containing medium was replaced with a fresh medium containing the cooper complexes at their IC50 concentration. A 0.1% (v/v) DMSO solution was used as vehicle control, while 6 μM Dox, and 5 μM Cis were used as positive controls. Cells were incubated again for 9, 12, 18, and 24 h. Immediately after exposure (0 h) and at the end of each incubation period, the medium was removed, cells detached with TrypLE Express, and centrifuged for 5 min at 650 × g, at 4 °C. The pellet was resuspended in cold PBS 1× and centrifuged at 3000 × g for 5 min, at 4 °C. Later, the pellet was resuspended in cold PBS 1×, and 1 mL of 80% (v/v) cold ethanol was added dropwise to each tube. […] The DNA content was evaluated on an Attune acoustic focusing flow cytometer (Life Technologies, Carlsbad, USA), and the results were analyzed by the respective software (Attune Cytometric software).

HCT116-DoxR cells [2] = experiment: Autophagy induction (CYTO-ID green, flow cytometry); format: cell-based, human; conditions: 48 h; complexes at IC50, Dox 6 μM, Cis 5 μM, rapamycin 1500 nM
Source text: Furthermore, previous studies have shown that complexes containing terpyridine derivatives have the ability to trigger both apoptosis and autophagy cell death mechanisms in cancer cells simultaneously.[38] This convergence of death pathways may arise from an adaptive response of the heterogeneous tumor cell population.[38] In this context, understanding the mechanism by which cells lose viability in the presence of the two Cu(II) complexes with the simultaneous induction of apoptosis and autophagy becomes crucial. Autophagy is a highly conserved catabolic process crucial for maintaining cellular homeostasis but is also associated with type II programmed cell death.[75] It involves intracellular degradation through autophagolysosomes responsible for breaking down luminal content and enabling recycling of cellular components.[76],[77] The assessment of the complexes’ ability to induce autophagy was conducted using flow cytometry, employing the CYTO-ID green detection reagent. This probe emits green fluorescence, marking the autophagic vacuoles within the cell. Higher fluorescence indicates a greater proportion of autophagolysosomes.[78] Three positive controls were used: Dox, Cis, and rapamycin (1500 nM), whose concentration was previously optimized for the HCT116-DoxR cell line in the laboratory.[64] Rapamycin is known to induce autophagy through its mechanistic target, mTOR.
Cell death via autophagy was evaluated using the Autophagy Assay Kit (ab139484; Abcam, Cambridge, United Kingdom), according to the manufacturers’ instructions. HCT116-DoxR cells were seeded at a density of 1 × 10^5 cells/mL in 6-well plates for 24 h, under the same conditions described before. After this incubation period, the culture medium was replaced with a fresh medium containing the copper complexes under evaluation at their IC50 concentration. A 0.1% (v/v) DMSO solution was used as the negative (vehicle) control, and 6 μM Dox and 5 μM Cis were used as positive controls. The cells were incubated again for 48 h. Rapamycin (1500 nM) was also added as a positive control, and it was added 18 h before the end of the 48 h incubation. After this period, the supernatant was discarded, and each well was washed with PBS 1×. Subsequently, cells were detached using TrypLE Express and washed with phenol red-free DMEM medium containing 5% (v/v) FBS. Cells were incubated with Green Stain Solution in phenol red-free DMEM medium containing 5% (v/v) FBS for 30 min at RT. After this period, the samples were washed and then resuspended in Assay Buffer 1×. The samples were analyzed using an Attune Acoustic Focusing Flow Cytometer (Life Technologies, Carlsbad, USA), and the results were analyzed via the Attune Cytometric software.

| Compound | effect on cell cycle progression (HCT116-DoxR cells [1]) | increase in autophagic vesicles compared to 0.1% DMSO control (HCT116-DoxR cells [2]) |
| --- | --- | --- |
| COc1cccc2c1C(=O)c1c(O)c3c(c(O)c1C2=O)C[C@@](O)(C(=O)CO)C[C@@H]3O[C@H]1C[C@H](N)[C@H](O)[C@H](C)O1 [Doxorubicin] | did not affect the cell cycle progression or cause an arrest | 2.2 fold |
| N.N.[Cl][Pt][Cl] [Cisplatin] | has a cytostatic effect in G2/M after incubation for 24 h | increase in green fluorescence intensity |
| [Cl][Cu-3]12([Cl])[n+]3ccccc3-c3cc(-c4cccc5ccccc45)cc([n+]31)-c1cccc[n+]12 [Cu1a] | a delay in the cell cycle at the S phase after 9 h, in the G2/M after 12 h of incubation, and a delay in the cell cycle at G0/G1 at 18 h | approximately 2 fold |
| [Cl][Cu-3]12([Cl])[n+]3ccccc3-c3cc(-c4ccc5ccccc5c4)cc([n+]31)-c1cccc[n+]12 [Cu1b] | a delay in the cell cycle at the S phase after 9 h, in the G2/M after 12 h of incubation, and a delay in the cell cycle at G0/G1 at 18 h | approximately 2 fold |
